pIC50: −log10 of the molar value.
What was measured:
human platelet PDE-V = molecular target: T1, human platelet PDE-V (Homo sapiens, UniProt O76074); experiment: cGMP-Phosphodiesterase (PDE) assay, enzymatic inhibitory test; assay type: biochemical; details: human platelet PDE-V; 0.1 μM [3H]-cGMP substrate, 30° C., 10 minutes; read-out: Inhibitory activity IC50
T1 construct: Human platelet cGMP-PDE was separated from other isozymes in human platelets; from tissue; host or cells: human platelets
Procedure: cGMP-Phosphodiesterase (PDE) Assay
Human platelet cGMP-PDE was separated from other isozymes in human platelets by a modification of the method of Thompson et. al. (see Cyclic Nucleotide Phosphodiesterase (PDE), in Methods of Enzymatic analysis, Vol 4, p127-234, 1984). In enzyme inhibition assays, the test compounds were dissolved in DMSO and then diluted with assay buffer (50 mM Tris-HCl, 0.077 mg/ml dithiothreitol and 10 mg/ml snake venom, 1 mM EGTA, pH 8.0), at final concentrations ranging from 10^−10 to 10^−6 M. Assays were performed at 0.1 μM substrate ([^3H]-cGMP) concentration, at 30° C. for 10 minutes using enzyme dilutions which gave 10-20% hydrolysis of substrate. Each assay was initiated by addition of substrate and terminated by addition of anion exchange resin (Dowex® 1-X8, 250 mg/mg) followed by centrifugation for 10 minutes (3000 rpm, at 4° C.). Radioactivity of supernatant (^3H-GMP) was assayed by liquid scintillation counting.

| Structure (SMILES) | melting point | pIC50 (human platelet PDE-V) |
| --- | --- | --- |
| COc1ccc(CNC(=O)c2cc([N+](=O)[O-])ccc2N[C@@H]2CCC[C@H]2O)cc1OC (relative stereo) [Example 67, N-(3,4-Dimethoxybenzyl)-2-(trans-2-hydroxycyclopentylamino)-5-nitrobenzamide] | 154 to 155 °C |  |
| CCCCC(CO)Nc1ccc([N+](=O)[O-])cc1C(=O)NCc1ccc2c(c1)OCO2 (centres unmarked) [2-[1-(1-Hydroxymethyl)pentylamino]-5-nitro-N-(1,3-benzodioxol-5-ylmethyl)benzamide] | 112 to 115 °C | > 8.00 |
| COc1ccc(CNC(=O)c2cc([N+](=O)[O-])ccc2N[C@H]2CC[C@@H](OC(C)=O)CC2)cc1OC [2-[cis-4-(acetoxy)cyclohexylamino]-N-(3,4-dimethoxybenzyl)-5-nitrobenzamide] | 147 to 148 °C | > 8.00 |
| COc1ccc(CNC(=O)c2cc(S(=O)(=O)N3CCN(C(=O)OC(C)(C)C)CC3)ccc2N[C@H]2CC[C@H](O)CC2)cc1OC [153(1), 5-[4-(tert-Butoxycarbonyl)piperazin-1-ylsulfonyl]-N-(3,4-dimethoxybenzyl)-2-(trans-4-hydroxycyclohexylamino)benzamide] | 221 to 222 °C |  |
| C[C@H](CO)Nc1ccc([N+](=O)[O-])cc1C(=O)NCc1ccc(Oc2ccccc2)cc1 [(R)-2-(2-Hydroxy-1-methylethyl)amino-5-nitro-N-(4-phenoxybenzyl)benzamide] | 127 to 129 °C | > 8.00 |
| Cc1ccc(CNC(=O)c2cc([N+](=O)[O-])ccc2N[C@@H](C)CO)cc1Cl [(S)-N-(3-Chloro-4-methylbenzyl)-2-(2-hydroxy-1-methylethylamino)-5-nitrobenzamide] | 178 to 179 °C | > 8.00 |
| O=C(NCc1ccc2c(c1)OCO2)c1cc([N+](=O)[O-])ccc1N[C@H]1CC[C@H](O)CC1 [Example 1(1), 2-(trans-4-hydroxycyclohexylamino)-5-nitro-N-(1,3-benzodioxol-5-ylmethyl)benzamide] | 205 to 206 °C |  |
| O=C(NCc1ccccc1)c1cc([N+](=O)[O-])ccc1NC(CO)CO [Example 55, N-Benzyl-2-[2-hydroxy-1-(hydroxymethyl)ethylamino]-5-nitrobenzamide] | 171 to 173 °C |  |
| CC[C@@H](CO)Nc1ccc([N+](=O)[O-])cc1C(=O)NCc1ccc(OC)c(OC)c1 [Example 65, (S)-N-(3,4-Dimethoxybenzyl)-2-[1-(hydroxymethyl)-propylamino]-5-nitrobenzamide] | 168 to 169 °C |  |
| COc1ccc(CNC(=O)c2cc([N+](=O)[O-])ccc2N[C@@H](C)CO)cc1OC [Example 68, (S)-N-(3,4-Dimethoxybenzyl)-2-(2-hydroxy-1-methyl-ethylamino)-5-nitrobenzamide] | 131 to 132 °C |  |
| COc1cc(CNC(=O)c2cc([N+](=O)[O-])ccc2NC(CO)CO)ccc1Cl [Example 91, N-(4-Chloro-3-methoxybenzyl)-2-[2-hydroxy-1-(hydroxymethyl)ethylamino]-5-nitrobenzamide] | 176 to 177 °C |  |
| COc1cc(CNC(=O)c2cc([N+](=O)[O-])ccc2N[C@@H](C)CO)cc(OC)c1 [Example 107, (S)-N-(3,5-Dimethoxybenzyl)-2-(2-hydroxy-1-methylethyl)amino-5-nitrobenzamide] | 98 to 101 °C |  |
| Cc1ccc(CNC(=O)c2cc([N+](=O)[O-])ccc2N[C@H]2CC[C@@H](O)CC2)cc1C [N-(3,4-Dimethylbenzyl)-2-(cis-4-hydroxycyclohexylamino)-5-nitrobenzamide] | 157 to 158 °C | > 8.00 |
| COc1ccc(CNC(=O)c2cc([N+](=O)[O-])ccc2N[C@@H](CO)CCSC)cc1OC [N-(3,4-dimethoxylbenzyl)-2-[(R)-1-hydroxymethyl-3-(methylthio)propylamino]-5-nitrobenzamide] | 150 to 152 °C | > 8.00 |
| O=C(NCc1ccc(F)c(Cl)c1)c1cc([N+](=O)[O-])ccc1NC(CO)CO [N-(3-Chloro-4-fluorobenzyl)-2-[2-hydroxy-1-(hydroxymethyl)ethylamino]-5-nitrobenzamide] | 235 to 238 °C | > 8.00 |

The next lines start with the values.

| melting point | pIC50 (human platelet PDE-V) | Structure (SMILES) |
| --- | --- | --- |
| 128 to 130 °C |  | CC[C@@H](CO)Nc1ccc([N+](=O)[O-])cc1C(=O)NCc1ccc2c(c1)OCO2 [2(1), (S)-2-[1-(Hydroxymethyl)propylamino]-5-nitro-N-(1,3-benzodioxol-5-ylmethyl)benzamide] |
| 168 to 170 °C | > 8.00 | O=C(NCc1ccc(-c2ccccc2)cc1)c1cc([N+](=O)[O-])ccc1N[C@H]1CC[C@@H](O)CC1 [2-(cis-4-Hydroxycyclohexylamino)-5-nitro-N-(4-phenylbenzyl)benzamide] |
| 142 to 143.5 °C |  | COc1ccc(CNC(=O)c2cc(C#N)ccc2N[C@@H](C)CO)cc1OC [88(1), (S)-5-Cyano-N-(3,4-dimethoxybenzyl)-2-(2-hydroxy-1-methylethylamino)benzamide] |
| 108 to 110 °C |  | COc1ccc(CNC(=O)c2cc(S(=O)(=O)N3CCNCC3)ccc2N[C@H]2CC[C@H](O)CC2)cc1OC [153(2), N-(3,4-Dimethoxybenzyl)-2-(trans-4-hydroxycyclohexylamino)-5-(piperazinosulfonyl)benzamide] |
| 140 °C |  | COc1ccc(CNC(=O)c2cc([N+](=O)[O-])ccc2NC2CC=CCC2)cc1F (centres unmarked) [153(3), 2-(3-cyclohexenylamino)-N-(3-fluoro-4-methoxybenzyl)-5-nitrobenzamide] |
| 166 to 168 °C |  | C[C@H](CO)Nc1ccc([N+](=O)[O-])cc1C(=O)NCc1ccc2c(c1)OCO2 [Example 7, (R)-2-(2-Hydroxy-1-methylethylamino)-5-nitro-N-(1,3-benzodioxol-5-ylmethyl)benzamide] |
| 233 to 234 °C |  | O=C(NCc1ccccc1)c1cc([N+](=O)[O-])ccc1N[C@H]1CC[C@H](O)CC1 [Example 51, N-benzyl-2-(trans-4-hydroxycyclohexylamino)-5-nitrobenzamide] |
| 161 to 162 °C |  | COc1ccc(CNC(=O)c2cc([N+](=O)[O-])ccc2NC(C)(C)CO)cc1OC [Example 66, N-(3,4-Dimethoxybenzyl)-2-(2-hydroxy-1,1-dimethyl-ethylamino)-5-nitrobenzamide] |
| 140 to 142 °C |  | COc1ccc(CNC(=O)c2cc([N+](=O)[O-])ccc2NNCC(F)(F)F)cc1OC [Example 69, N-(3,4-Dimethoxybenzyl)-5-nitro-2-[2-(2,2,2-trifluoroethyl)hydrazino]benzamide] |
| 226.5 to 227 °C |  | COc1ccc(CNC(=O)c2cc([N+](=O)[O-])ccc2Nc2ccc3[nH]cnc3c2)cc1OC [Example 80, 2-(1H-Benzimidazol-5-ylamino)-N-(3,4-dimethoxybenzyl)-5-nitrobenzamide] |
| 189 to 190 °C |  | COc1ccc(CNC(=O)c2cc(-c3ncc[nH]3)ccc2N[C@H]2CC[C@H](O)CC2)cc1OC [Example 90, N-(3,4-Dimethoxybenzyl)-2-(trans-4-hydroxycyclohexylamino)-5-(1H-imidazol-2-yl)benzamide] |
| 234 to 235.5 °C |  | COc1cc(CNC(=O)c2cc(S(C)(=O)=O)ccc2N[C@H]2CC[C@H](O)CC2)ccc1Cl [Example 102, N-(4-Chloro-3-methoxybenzyl)-2-(trans-4-hydroxycyclohexylamino)-5-methanesulfonylbenzamide] |
